For assay [1], the system named is Raji. The experiment in a line: Inhibition of tumor promotion in human Raji cells assessed as TPA-induced Epstein-Barr virus early antigen activation at 100 mol ratio/TPA after 48 hrs by indirect immunofluorescence analysis relative to TPA alone. The assay is classed as functional. Also on record: scale not given: the % may be the effect or the level left.
In assay [2] the test system is A549. Description: Downregulation of uPA protein expression in human A549 cell extract at 3 uM after 48 hrs by ELISA (reference value: 11.00 +/-1.60 ng/ml). The assay is classed as functional.
For assay [3], the system named is MCF7. The experiment in a line: Downregulation of uPA protein expression in human MCF7 cell extract at 0.50 uM after 48 hrs by ELISA. The assay is classed as functional.
Assay [4] concerns MCF7. Description: Downregulation of uPA protein expression in human MCF7 cell extract at 0.125 uM after 48 hrs by ELISA (reference value: 1 1.4000 +/- 1.40 ng/ml). The format is functional. (An ELISA detects its analyte on a solid surface through an enzyme-linked reagent.)
Assay [5] has as its system A549. Description: Downregulation of uPA protein expression in human A549 cell extract at 6 uM after 48 hrs by ELISA (reference value: 11.00 +/-1.60 ng/ml). The format is functional.
Assay [6] deals with MCF7. Description: Downregulation of uPA protein expression in human MCF7 cell extract at 0.50 uM after 48 hrs by ELISA (reference value: 1 1.4000 +/- 1.40 ng/ml). The format is functional.
In assay [7] the target is Urokinase plasminogen activator surface receptor (Homo sapiens, UniProt Q03405). Description: Binding affinity to uPAR.
Assay [8] has as its system Raji. Description: Inhibition of tumor promotion in human Raji cells assessed as TPA-induced Epstein-Barr virus early antigen activation at 10 mol ratio/TPA after 48 hrs by indirect immunofluorescence analysis relative to TPA alone. On the set-up: scale not given: the % may be the effect or the level left. The format is functional.
Assay [9] deals with Raji. Description: Inhibition of tumor promotion in human Raji cells assessed as TPA-induced Epstein-Barr virus early antigen activation at 500 mol ratio/TPA after 48 hrs by indirect immunofluorescence analysis relative to TPA alone. The format is functional. On the set-up: scale not given: the % may be the effect or the level left.
The subject of assay [10] is A549. The experiment in a line: Downregulation of uPA protein expression in human A549 cell extract at 1.5 uM after 48 hrs by ELISA (reference value: 11.00 +/-1.60 ng/ml). The format is functional.
For assay [11], the system named is MCF7. The experiment in a line: Downregulation of uPA protein expression in human MCF7 cell extract at 0.0625 ug/well after 48 hrs by ELISA (reference value: 1 1.4000 +/- 1.40 ng/ml).
In assay [12] the test system is Raji. The experiment in a line: Inhibition of tumor promotion in human Raji cells assessed as TPA-induced Epstein-Barr virus early antigen activation at 1000 mol ratio/TPA after 48 hrs by indirect immunofluorescence analysis relative to TPA alone. The assay is classed as functional. Also on record: scale not given: the % may be the effect or the level left.
For assay [13], the system named is MCF7. Description: Downregulation of uPA protein expression in human MCF7 cell extract at 0.25 uM after 48 hrs by ELISA. The format is functional.
Assay [14] relates to A549. Description: Downregulation of uPA protein expression in human A549 cell extract at 12 uM after 48 hrs by ELISA (reference value: 11.00 +/-1.60 ng/ml). The format is functional.
Assay [15] relates to MCF7. Description: Downregulation of uPA protein expression in human MCF7 cell extract at 0.0625 uM after 48 hrs by ELISA. The format is functional.
The subject of assay [16] is A549. Description: Cytotoxicity against human A549 cells after 72 hrs by alamar blue assay. The settings on record: A549, 72 h. The format is functional, cell-based. (In general: Resazurin is reduced to fluorescent resorufin, in cell work by metabolically active cells.)
For assay [17], the system named is MCF7. The experiment in a line: Downregulation of uPA protein expression in human MCF7 cell extract at 0.125 uM after 48 hrs by ELISA. The assay is classed as functional.
The test system of assay [18] is MCF7. Description: cells. The settings on record: Homo sapiens, MCF7, 48 h.
Description: Cytotoxicity against human MCF7 cells after 48 hrs by sulforhodamine B assay
Assay [19] has as its system MCF7. The experiment in a line: Downregulation of uPA protein expression in human MCF7 cell extract at 0.25 uM after 48 hrs by ELISA (reference value: 1 1.4000 +/- 1.40 ng/ml). The format is functional.
The test system of assay [20] is MCF7. The experiment in a line: Downregulation of uPA protein expression in human MCF7 cell extract at 0.67 uM after 48 hrs by ELISA (reference value: 1 1.4000 +/- 1.40 ng/ml). The assay is classed as functional.
The subject of assay [21] is MCF7. Description: Downregulation of uPA protein expression in human MCF7 cell extract at 0.335 ug/well after 48 hrs by ELISA (reference value: 1 1.4000 +/- 1.40 ng/ml).
Assay [22] has as its system MCF7. The experiment in a line: Downregulation of uPA protein expression in human MCF7 cell extract at 0.67 uM after 48 hrs by ELISA. The assay is classed as functional.
Assay [23] concerns A549. Description: Downregulation of uPA protein expression in human A549 cell extract at 3.40 uM after 48 hrs by ELISA (reference value: 11.0000 +/-1.60 ng/ml). The assay is classed as functional.
The subject of assay [24] is A549. Description: Downregulation of uPA protein expression in human A549 cell extract at 3.40 uM after 48 hrs by ELISA. The assay is classed as functional.
For assay [25], the system named is MCF7. Description: Downregulation of uPA protein expression in human MCF7 cell extract at 0.167 uM after 48 hrs by ELISA. The assay is classed as functional.
Assay [26] has as its system MCF7. Description: Downregulation of uPA protein expression in human MCF7 cell extract at 0.167 ug/well after 48 hrs by ELISA (reference value: 1 1.4000 +/- 1.40 ng/ml).
Assay [27] concerns A549. Description: Downregulation of uPA protein expression in human A549 cell extract at 0.425 uM after 48 hrs by ELISA (reference value: 11.0000 +/-1.60 ng/ml). The assay is classed as functional.
The subject of assay [28] is A549. The experiment in a line: Downregulation of uPA protein expression in human A549 cell extract at 0.85 uM after 48 hrs by ELISA (reference value: 11.0000 +/-1.60 ng/ml). The format is functional.
Assay [29] relates to A549. The experiment in a line: Downregulation of uPA protein expression in human A549 cell extract at 1.70 uM after 48 hrs by ELISA (reference value: 11.0000 +/-1.60 ng/ml). The format is functional.
Assay [30] relates to MCF7. Description: Downregulation of uPA protein expression in human MCF7 cell extract at 0.335 uM after 48 hrs by ELISA. The assay is classed as functional.
Assay [31] deals with MCF7. Description: Downregulation of uPA protein expression in human MCF7 cell extract at 0.084 uM after 48 hrs by ELISA. The assay is classed as functional.
For assay [32], the system named is A549. Description: Downregulation of uPA protein expression in human A549 cell extract at 0.85 uM after 48 hrs by ELISA. The assay is classed as functional.
In assay [33] the test system is A549. The experiment in a line: Downregulation of uPA protein expression in human A549 cell extract at 0.425 uM after 48 hrs by ELISA. The assay is classed as functional.
The test system of assay [34] is MCF7. Description: Downregulation of uPA protein expression in human MCF7 cell extract at 0.084 ug/well after 48 hrs by ELISA (reference value: 1 1.4000 +/- 1.40 ng/ml).
The subject of assay [35] is A549. The experiment in a line: Downregulation of uPA protein expression in human A549 cell extract at 1.70 uM after 48 hrs by ELISA. The assay is classed as functional.

In general, Ki refers to a measure of affinity in units of concentration, obtained from inhibition or displacement.

Urokinase plasminogen activator surface receptor, sequence (Q03405 whole entry): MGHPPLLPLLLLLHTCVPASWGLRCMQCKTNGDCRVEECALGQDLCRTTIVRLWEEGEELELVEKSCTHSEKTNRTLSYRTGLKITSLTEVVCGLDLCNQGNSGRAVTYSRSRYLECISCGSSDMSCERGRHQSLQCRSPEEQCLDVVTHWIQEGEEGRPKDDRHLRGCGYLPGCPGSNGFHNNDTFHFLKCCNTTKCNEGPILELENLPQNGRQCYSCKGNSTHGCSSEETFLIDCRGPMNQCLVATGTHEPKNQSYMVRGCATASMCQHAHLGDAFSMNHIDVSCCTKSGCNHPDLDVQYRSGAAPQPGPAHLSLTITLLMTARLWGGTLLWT

With `N#Cc1cc(-c2ccccc2)n(Cc2nc3ccccc3[nH]2)c1N`, the Activity worked out at 82% in the assay with Raji [1]; 9.7 ng/mL in the assay on A549 [2]; 75% in the assay on MCF7 [3]; 5.7 ng/mL with MCF7 [4]; 9.8 ng/mL in the assay with A549 [5]; 2.8 ng/mL in the assay with MCF7 [6]. Moreover, the Activity in the assay with Raji [8] came to 100%; in the assay on Raji [9], 48.3%; with A549 [10], 11.6 ng/mL; with MCF7 [11], 7.4 ng/mL; with Raji [12] it was 18%; in the assay with MCF7 [13] it was 65%. Also, the Activity in the assay with A549 [14] came out at 9.2 ng/mL; in the assay with MCF7 [15] it was 35%; with MCF7 [17], 50%; in the assay on MCF7 [19] it was 4 ng/mL. The affinity in [7] corresponds to a Ki of 0.000589 nM. Further, the results for the IC50 in the assay with A549 [16] and in the assay on MCF7 [18] were 12000 nM and 0.515 µg/well, respectively.

For the compound `C=CCn1c(CN2C3=Nc4ccccc4C(=O)NC3=Nc3ccccc32)nc2ccccc21`, the Activity worked out at 77.9% with Raji [1]; 4.4 ng/mL with MCF7 [20]; 7 ng/mL in the assay on MCF7 [21]; 61% with MCF7 [22]; 3.8 ng/mL in the assay on A549 [23]; 65% in the assay with A549 [24]. Further, the Activity with MCF7 [25] stood at 33%; in the assay on MCF7 [26] it was 7.7 ng/mL; in the assay with A549 [27], 7.4 ng/mL; with Raji [8] it was 100%; in the assay with A549 [28] it was 6.2 ng/mL; in the assay on Raji [9], 45.8%. In addition, the Activity with A549 [29] amounted to 5.3 ng/mL; in the assay with MCF7 [30], 39%; with MCF7 [31] it was 23%; with A549 [32] it was 44%; with Raji [12], 11.6%; in the assay with A549 [33] it was 33%. Further, the Activity with MCF7 [34] worked out at 8.8 ng/mL; in the assay on A549 [35], 52%. Further, in assay [7], the Ki came out at 0.000288 nM. For the same compound, the IC50 in the assay with A549 [16] came to 3400 nM; with MCF7 [18] it was 0.667 µg/well.

The values above are taken from ChEMBL document CHEMBL2203035, “Synthesis and docking studies of novel antitumor benzimidazoles” (Bioorg Med Chem, 2012).
